Reference: patent publication US10058587B2, “Peptide composition for cancer treatment by inhibiting TRPV6 calcium channel activity” (priority 2008, dated 2018)
Where two headings read alike, the source gives them in different places. Bridges are numbered along the chain shown (N, C = ends). Where no end group is shown, it is not given here.

Experiments:
[1] = Degradation rate in human plasma (HPLC); type: in vitro ADME
Description: (§1) Rat plasma was obtained from blood taken from sacrificed rats (Sprague-Dawley) and placed into heparinized glass vials to prevent clotting. Whole blood was centrifuged at 8000×g for 5 minutes to spin down the cells leaving the plasma as supernatant. Human whole blood samples from healthy humans were taken in lithium-heparinized vacuum tubes. The samples were placed into 2.0 mL microcentrifuge tubes and centrifuged at 8000×g for 5 min. The plasma was carefully separated from red blood cells and used immediately.
(§2) Determination of degradation rate of the C-peptides was done by measuring, with the HPLC protocol, the amount of either SorC13 or SorC27 in dosed plasma samples, after time. Sample tubes (500 uL) containing 2 uL of 2 mM Pefabloc were previously prepared for sample delivery SorC13 (1.0 mg) or SorC27 (2.0 mg) were dissolved in 1.0 mL of fresh plasma (37° C.) and placed in an incubating water bath at 37° C. A sample (100 uL) was taken immediately and quenched in sample tubes containing 2 uL of 2 mM Pefabloc, mixed vigorously and immediately frozen at −80° C. This initial sample represented time zero for the run. At successive time intervals of 5 minutes, 100 uL samples were withdrawn, quenched in Pefabloc, mixed, and frozen at −80° C. until analysis.
(§3) The rat plasma degradation rate was determined for the plasma from three different rats, while the rate of degradation in human plasma used six separate plasma samples. The data used were the means (±SEM) and were fitted to a simple one-phase exponential decay model to determine the half-life of the two peptides. This also allowed the calculation of a static degradation rate. FIG. 11 is illustrative of the rate at which SorC27 was degraded in human plasma.

[2] = pI; type: physicochemical; conditions: measured
[3] = Solubility (aqueous)
[4] = test system: mealworm larvae; experiment: Mealworm larva paralytic bioassay; type: in vivo
[5] = test system: mealworm larvae; experiment: Mealworm larva paralytic bioassay; type: in vivo; conditions: for larvae paralyzed: 20 nmole/100 mg mass
Text: To show this, the mealworm larva paralytic bioassay reported previously (U.S. Pat. No. 7,119,168) was used. Animals from a mealworm colony were arbitrarily selected and placed in groups (treatment and control). The animals were weighed to allow calculation of equivalent doses. The treatment was with either SorC13 or SorC27 dissolved in buffered insect Ringer's solution. The control was injection was an equivalent volume of insect Ringer's (NaCl; 10.40 g; KCl, 0.32 g; CaCl2, 0.48 g; NaHCO3, 0.32 g dissolved in 1 L of Millipore sterile water, pH 7.4). Peptide formulations were: SorC27 solutions, prepared at 1.0 mg/100 uL insect Ringer's (10 ug/uL, […], MW=2957); and SorC13, prepared at 0.5 mg/100 uL (5 ug/uL, […], MW=1566). The doses were 50 ug SorC27 per 100 mg of animal mass and 25 ug SorC13 per 100 mg of animal mass. Peptide solutions and control saline were injected dorsally at the fourth segment from the head, just under the integumen. Animals were gently ‘tail tweaked’ with forceps to trigger the escape reflex reaction and scored on time-to-effect, duration of effect and intensity of effect.

[6] = Degradation rate in rat plasma (HPLC); type: in vitro ADME
Description: as §1, §2, §3

[7] = Storage stability of solid and aqueous solution; type: physicochemical
Description: Additionally, the peptides have greater shelf-life stability and solution stability due to the presence of fewer sensitive disulfide bonds (soricidin has 3 disulfide bonds). The peptides of the invention optionally have no disulfide bonds. An absence of disulfide bonds provides a very long shelflife during storage under minimal refrigeration or at room temperature as a solid. Additionally when the peptides of the invention with no disulfide bonds are dissolved in water, cleavage of disulfide bonds cannot occur. […] The formation of inter-peptide S—S bonds also results in precipitation of soricidin. The peptides of the invention, such as SorC13 and SorC27, are typically stable in aqueous solution at 8° C. for at least 3 weeks with no change in purity as measured by HPLC.
“Very stable” in the above table means that there was no observable degradation of the solid peptides over 6 months. As a solution in sterile water, the peptides are typically stable for at least 3 weeks at 8° C. and at −20° C., are expected to be stable more than 1 year.

[8] = Tissue distribution of Cy5.5-labeled peptides by optical imaging; type: in vivo, CD1 mice; conditions: Cy5.5-tagged peptide
Text: SorC13 and SorC27 were labeled with the near-infrared probe, Cy5.5. SorC13 was labeled at lysine-1 and lysine-8 with the infrared fluorescent probe cy5.5 through reaction with Cy5.5 NHS ester-activated process. SorC27 was labeled at the single cysteine thiol with Cy5.5 maleamide-activated reaction. The labeled peptides were purified with a combination of size exclusion chromatography and HPLC. The label, Cy5.5, fluoresces in the infra-red region after excitation with a scanning laser. The low energy laser is able to penetrate the animal to about 1 cm and, thus, by scanning prone and supine positions, the presence of the tagged peptides can be quantified in three dimensions.
Cy5.5-labeled peptides were intravenously injected into CD1 mice (4 for each compound) at 100 ug per animal in 100 uL, and animals were imaged live using an optical imaging system, Optix eXplorer (GE Healthcare Systems) at different time points (30 min, 90 min, 4 h). […] The bio-distribution of the labeled peptides in different organs and tissues were visualized and relatively quantified by optical imaging analysis. This protocol allows for visualization of the location of the labeled peptides and how the location changes over time. […] Nodes that accumulated the labeled peptides are indicated by line 1 (superfacial cervical nodes), line 4 (axillary nodes), line 5 (brachial nodes), line 8 (mesenteric nodes) and line 9 (inguinal nodes). FIGS. 8, 9 and 10 show the amounts of labeled peptides in various organs ex vivo.

[9] = target: T1, human TRPV6b (Homo sapiens, UniProt Q9H1D0); experiment: Whole-cell patch clamp of calcium store operated current (ISOC) through TRPV6 in transfected LnCaP cells; type: cell-based
T1 construct: expressed in transfected cells; host or cells: LnCaP (ATCC CRL-1740), human lymph node prostate cancer cells
T1 sequence (Q9H1D0 41-765 limits assumed): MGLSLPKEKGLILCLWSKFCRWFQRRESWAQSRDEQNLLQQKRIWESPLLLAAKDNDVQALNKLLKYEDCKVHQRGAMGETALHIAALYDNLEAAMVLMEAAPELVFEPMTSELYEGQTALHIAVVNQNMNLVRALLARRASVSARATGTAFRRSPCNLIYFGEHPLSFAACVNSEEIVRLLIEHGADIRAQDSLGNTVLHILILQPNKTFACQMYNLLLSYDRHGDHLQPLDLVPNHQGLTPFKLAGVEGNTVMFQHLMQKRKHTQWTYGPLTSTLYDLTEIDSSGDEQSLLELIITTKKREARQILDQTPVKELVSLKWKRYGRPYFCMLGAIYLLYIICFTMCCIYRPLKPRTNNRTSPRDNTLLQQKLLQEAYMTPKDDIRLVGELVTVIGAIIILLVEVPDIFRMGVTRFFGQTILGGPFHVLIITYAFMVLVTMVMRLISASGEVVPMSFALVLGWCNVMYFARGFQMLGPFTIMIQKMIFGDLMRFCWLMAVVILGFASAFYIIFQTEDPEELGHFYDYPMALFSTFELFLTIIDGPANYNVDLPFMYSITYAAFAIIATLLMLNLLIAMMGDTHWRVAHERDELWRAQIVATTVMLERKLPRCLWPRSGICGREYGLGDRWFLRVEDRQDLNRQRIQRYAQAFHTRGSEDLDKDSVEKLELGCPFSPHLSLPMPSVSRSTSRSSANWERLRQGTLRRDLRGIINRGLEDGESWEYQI
Description: An expression vector (pCAGS-IRES-hTRPV6b) (Bodding et al. 2003) containing the nucleotide code for human TRPV6b was transfected into and expressed by human lymph node prostate cancer (LnCaP, ATCC CRL-1740). Patch clamping with whole-cell current acquisition was used to measure the calcium current through this channel. Cells were treated and calcium store operated current (ISOC) was measured with either SorC13 (n=90) or SorC27 (n=30) in a closed-circuit perfusion for 3 min at each of cumulative concentrations of 0 (baseline), 100 nM, 500 nM 1 uM, 30 uM and 100 uM. Washout perfusion was done at 2 mL/min for 3 min. […] Further, both C-peptides are very strong inhibitors of calcium current through the TRPV6 channel with inhibition constants in the 100 nM range.

[10] = Clearance route in iv mice; conditions: i.v.
[11] = Repeated dose toxicity study; type: in vivo, NOD/SCID mice; conditions: 400 mg/kg, daily i.p. injection for 12 days
Description: In order to investigate repeated dose toxicity, SorC27 at 400 mg/kg formulated in saline was injected (i.p.) into NOD/SCID mice every day for 12 days. The animals were observed cage-side each day and examined at the end of the experimental period.

[12] = Physiological effects after i.v. injection into CD1 mice (blood pressure, heart rate, neurological/behavioral); type: in vivo
Description: (§4) After in vivo i.v. injection into CD1 mice, SorC13 caused a small spike (approximately 25%) in blood pressure in the first 15 min which disappeared by 1 hour.

[13] = Single dose acute intravenous bolus toxicity study with 5-day observation; type: in vivo, CD-1 mice
Description: A single dose acute intravenous bolus injection toxicity study followed by a 5-day observation period in CD-1 mice was performed as described below. Three doses of each of SorC13 and SorC27 were used (10, 100 and 500 mg/Kg). Daily cage-side exams for 5 days with hourly exams for the first 4 hrs post injection. As part of the analysis the following assessments were made: body weights prior to dosing and at termination; all animals were necropsied (including preparation of bone marrow smears); organ weights were taken of all animals.
as §4

[14] = single i.v. 10, 100 and 500 mg/kg

Sequence: DCSQDCAACSILARPAELNTETCILECEGKLSSNDTEGGLCKEFLHPSKVDLPR (disulfide 2-23, 6-27, 9-41) [Sor54, soricidin, reference compound]
- binding to plasma proteins ([1]; human plasma): binds to
- half-life ([1]; human plasma): > 1800 min
- pI [2]: 4.3 (measured)
- solubility [3]: < 20 mg/mL
- Physiol. effects in vivo (mealworm larvae); 5 mg/kg [4]: Paralytic
- larvae paralyzed ([5]; time 0 min): 4/4
- larvae paralyzed ([5]; time 2 min): 4/4
- larvae paralyzed ([5]; time 30 min): 4/4
- paralysis in the mealworm larva model ([5]; molar equivalent doses (20 nanomole/100 mg larva)): profoundly paralytic
- binding to plasma proteins ([6]; rat plasma): binds to
- half-life ([6]; rat plasma): > 1800 min
- Stability in aqueous solution @ −20° C. [7]: stable
- Stability solid @ Room Temp. [7]: unstable
- Stability solid @ −20° C. [7]: stable

Sequence: KEFLHPSKVDLPR [SorC13, KEFLHPSKVDLPR]
- detectable in tissues after perfusion ([8]; 24 hours): still detectable
- tissue localization ([8]; i.v. 100 ug): localize predominantly in lymph nodes, lung, liver and kidney
- binding to plasma proteins ([1]; human plasma): doesn't
- half-life ([1]; human, plasma, 37° C.): 56.6 min
- solubility ([3]; aqueous): > 200 mg/mL
- IC50 [9]: 100 nM
- Kd [9]: 100 nM
- Clearance route in iv mice @ 5 mg/kg [10]: Rapid via kidney.
- Repeated dose in NOD/SCID mice: body weight [11]: No loss of body
- Repeated dose in NOD/SCID mice: toxic effects [11]: controls, no toxic
- neurological/behavioral changes ([12]; i.v., over 72 hours): no neurological/behavioral changes
- spike in blood pressure in the first 15 min ([12]; i.v., disappeared by 1 hour): approximately 25%
- BP spike @ 15 min ([12]; mice @ 5 mg/kg, stabilizes by 1 hr): 15% BP spike, @
- half-life ([6]; Sprague-Dawley, rat, plasma, 37° C.): 58 min
- binding to plasma proteins ([6]; rat plasma): doesn't
- Maximum Tolerated Dose in CD-1 mice by single i.v. dose ([13]; 10, 100 and 500 mg/kg doses): No toxic effects
- adverse events over 5-day post-injection observation period [13, 14]: no adverse events
- necropsy changes in major organ systems [13, 14]: no significant changes in all major organ systems
- Stability in aqueous solution @ −20° C. [7]: Very stable
- Stability solid @ Room Temp. [7]: Very stable
- Stability solid @ −20° C. [7]: Very stable
